Reference: patent US9200020B2, “6-oxopurine phosphoribosyltransferase inhibitors” (THE UNIVERSITY OF QUEENSLAND, priority 2012, dated 2015)
Like-named read-outs stand apart in the source and are kept apart here.

Tests used:
[1] = biological target: E. coli XGPRT (Escherichia coli (strain K12), UniProt P0A9M5); test: Ki values with E. coli XGPRT; conditions: read-out: Ki (μM) XGPRT
[2] = biological target: PfHGXPRT (Plasmodium falciparum (isolate FCR-3 / Gambia), UniProt P20035); test: biochemical; type: biochemical
[3] = biological target: human HGPRT (Homo sapiens (Human), UniProt P00492); test: Ki determination, spectrophotometric assay, human HGPRT; type: biochemical; conditions: Ki(app), 25° C., pH 7.4, guanine 60 μM
human HGPRT, sequence (P00492 whole entry): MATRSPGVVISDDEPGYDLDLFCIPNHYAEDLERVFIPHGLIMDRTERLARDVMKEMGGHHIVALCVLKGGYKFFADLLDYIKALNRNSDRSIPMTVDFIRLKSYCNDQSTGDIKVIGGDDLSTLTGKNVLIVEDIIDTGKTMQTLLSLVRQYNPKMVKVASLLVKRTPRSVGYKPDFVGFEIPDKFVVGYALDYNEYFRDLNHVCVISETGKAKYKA

[4] = biological target: PvHGPRT (Plasmodium vivax, UniProt A5K7E9); test: biochemical; conditions: for Ki ratio (proto:phosphonatoethyl): PvHGPRT, decrease in Ki when N-H is replaced by phosphonoethyl
PvHGPRT, sequence (A5K7E9 1-233): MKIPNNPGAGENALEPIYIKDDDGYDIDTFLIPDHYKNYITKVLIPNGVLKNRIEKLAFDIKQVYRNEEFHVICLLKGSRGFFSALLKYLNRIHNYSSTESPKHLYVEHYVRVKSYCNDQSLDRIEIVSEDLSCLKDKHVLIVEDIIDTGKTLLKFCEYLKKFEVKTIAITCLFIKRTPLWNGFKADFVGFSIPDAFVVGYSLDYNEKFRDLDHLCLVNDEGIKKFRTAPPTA

[5] = test system: M. tuberculosis H37Ra (ATCC 25177); test: Resazurin reduction microplate assay, M. tuberculosis; conditions: five days at 37° C., resazurin fluorescence
[6] = test system: P. falciparum strain D6; test: [3H]-hypoxanthine growth inhibition assay, P. falciparum D6; conditions: Plasmodium falciparum; for IC50: D6, read-out: D6 IC50; for IC90: D6, read-out: D6 IC90
[7] = test system: P. falciparum strain W2; test: [3H]-hypoxanthine growth inhibition assay, P. falciparum W2; conditions: Plasmodium falciparum; for IC50: W2, read-out: W2 IC50; for IC90: W2, read-out: W2 IC90
[8] = Ki(app), 25° C., pH 7.4, guanine 60 μM, read-out: Ki Pf
[9] = Ki(app), 25° C., pH 7.4, guanine 60 μM, read-out: Ki Pv

In the case of `Nc1nc2c(ncn2CCN(CCP(=O)(O)O)CP(=O)(O)O)c(=O)[nH]1` [Compound 2], the Ki [1] is reported as 27 µM.

Work on `O=C(O)CCCN(CCn1cnc2c(=O)[nH]cnc21)CCP(=O)(O)O` [Example 23, 9-[(N-(Carboxypropyl)-N-(2-phosphonoethyl))-2-aminoethyl]hypoxanthine] yielded a Ki [2] of at least 210 µM.

`N#CCN(CCn1cnc2c(=O)[nH]cnc21)CCP(=O)(O)O` [Example 18, 9-[(N-(2-Cyanomethyl)-N-(2-phosphonoethyl))-2-aminoethyl]hypoxanthine] was tested, and the Ki [3] was 35 µM, the Ki [2, 8] was at least 250 µM and the Ki [4, 9] was 47 ± 5 µM.

`CCOC(=O)[C@H](Cc1ccccc1)NP(=O)(CCN(CCCC#N)CCn1cnc2c(=O)[nH]cnc21)N[C@@H](Cc1ccccc1)C(=O)OCC` [drawing 83] gave an IC50 [5] of 60 µM.

`O=c1[nH]cnc2c1ncn2CCNCCP(=O)(O)O` [Example 26, 9-[(N-(2-Phosphonoethyl))-2-aminoethyl]hypoxanthine] gave a Ki [3] of 40 ± 2 µM, a Ki [2] of at least 200 µM and a Ki [4, 9] of at least 250 µM.

Compound `N#CCCN(CCn1cnc2c(=O)[nH]cnc21)CCP(=O)(O)O` [Example 19, 9-[(N-(2-Cyanoethyl)-N-(2-phosphonoethyl))-2-aminoethyl]hypoxanthine] has a Ki [3] of 2.4 ± 0.2 µM, a Ki [2, 8] of 0.2 ± 0.05 µM and a Ki [4, 9] of 0.7 ± 0.06 µM.

Compound `Nc1nc2c(ncn2CCN(CCOCP(=O)(O)O)CCP(=O)(O)O)c(=O)[nH]1` [Compound 1] has a Ki [1] of 0.4 µM.

In the case of `O=c1[nH]cnc2c1ncn2CCOCCP(=O)(O)O` [PEEHx, 2-(phosphonoethoxy)ethyl hypoxanthine, reference compound], the Ki [3] is reported as 3.6 ± 0.2 µM and the Ki [2, 8] is reported as 0.3 ± 0.04 µM.

Work on `CCOC(=O)[C@H](Cc1ccccc1)NP(=O)(CCN(CCCC#N)CCn1cnc2c(=O)[nH]cnc21)N[C@@H](Cc1ccccc1)C(=O)OCC` [Compound 6] yielded an IC50 [6] of 4.2 ± 1.4 µM, an IC90 [6] of 10.6 ± 1.8 µM and an IC50 [7] of 5.5 ± 1.6 µM. It also gave an IC90 [7] of 16.1 ± 0.1 µM.

Compound `N#CCCN(CCn1cnc2c(=O)[nH]cnc21)CCP(=O)(O)O` [Compound 12] has an IC50 [6] of 6.4 ± 0.9 µM, an IC90 [6] of 10.2 ± 1.6 µM and an IC50 [7] of 10.4 ± 2 µM. For the same compound, the IC90 [7] was 21.2 ± 1 µM.

In the case of `CCCOC(=O)[C@H](Cc1ccccc1)NP(=O)(CCN(CCC#N)CCn1cnc2c(=O)[nH]c(N)nc21)N[C@@H](Cc1ccccc1)C(=O)OCCC` [Compound 13], the IC50 [6] is reported as 75 µM and the IC90 [6] is reported as 215 µM.

`CCOC(=O)[C@H](Cc1ccccc1)NP(=O)(CCN(CCC(=O)OC)CCn1cnc2c(=O)[nH]c(N)nc21)N[C@@H](Cc1ccccc1)C(=O)OCC` [Compound 10] was tested, and the IC50 [6] was 11.8 ± 1.6 µM, the IC90 [6] was 30 ± 2.9 µM and the IC50 [7] was 5.6 ± 1.8 µM. The IC90 [7] was 37.5 ± 3.5 µM.

In the case of `O=C(O)CN(CCn1cnc2c(=O)[nH]cnc21)CCP(=O)(O)O` [Example 21, 9-[(N-(Carboxymethyl)-N-(2-phosphonoethyl))-2-aminoethyl]hypoxanthine], the Ki [2] is reported as 0.6 ± 0.06 µM.

With `O=c1[nH]cnc2c1ncn2CCN(CCO)CCP(=O)(O)O` [Example 24, 9-[(N-(2-Hydroxyethyl)-N-(2-phosphonoethyl))-2-aminoethyl]hypoxanthine] the Ki [3] was 5.5 ± 0.4 µM, the Ki [2, 8] was 2.6 ± 0.4 µM and the Ki [4, 9] was 21 ± 3 µM.

`COC(=O)CCN(CCn1cnc2c(=O)[nH]c(N)nc21)CCP(=O)(O)O` [Compound 8] showed an IC50 [6] of 3.5 ± 1 µM, an IC90 [6] of 8.6 ± 1.4 µM and an IC50 [7] of 2.9 ± 1.1 µM. It also gave an IC90 [7] of 15.9 ± 4.5 µM.

For `COC(=O)CCCN(CCn1cnc2c(=O)[nH]c(N)nc21)CCP(=O)(O)O` [Example 3, 9-[(N-(4-Methoxy-4-oxobutyl)-N-(2-phosphonoethyl))-2-aminoethyl]guanine], the Ki ([4]; Ki Pv) was at least 200 µM.

`CC(C#N)CN(CCn1cnc2c(=O)[nH]cnc21)CCP(=O)(O)O` (stereo not shown) [Example 20, 9-[(N-(2-Cyanopropyl)-N-(2-phosphonoethyl))-2-aminoethyl]hypoxanthine] gave a Ki [3] of 29 ± 2 µM, a Ki [2, 8] of 6 ± 0.06 µM and a Ki [4, 9] of at least 230 µM.

Compound `Nc1nc2c(ncn2CCNCCP(=O)(O)O)c(=O)[nH]1` [Example 12, 9-[(N-(2-Phosphonoethyl))-2-aminoethyl]guanine] has a Ki [3] of 3 ± 0.6 µM, a Ki [2, 8] of 16 ± 1 µM and a Ki [4, 9] of 11 ± 0.6 µM.

For `N#CCCCN(CCn1cnc2c(=O)[nH]c(N)nc21)CCP(=O)(O)O` [Compound 4], the IC50 [6] was 8.6 ± 1.5 µM, the IC90 [6] was 24.5 ± 3.5 µM and the IC50 [7] was 5.7 ± 3.9 µM. It also gave an IC90 [7] of 32.5 ± 3.5 µM.

`Nc1nc2c(ncn2CCN(CCP(=O)(O)O)CCP(=O)(O)O)c(=O)[nH]1` [Example 11, 9-[(N,N-(Bis-2-phosphonoethyl))-2-aminoethyl]guanine] was tested, and the “Ki ratio (proto:phosphonatoethyl)” value [4] was 12-fold.

`O=C(O)CCN(CCn1cnc2c(=O)[nH]cnc21)CCP(=O)(O)O` [Example 22, 9-[(N-(2-Carboxyethyl)-N-(2-phosphonoethyl))-2-aminoethyl]hypoxanthine] was tested, and the Ki [3] was at least 240 µM, the Ki [2, 8] was 0.4 ± 0.03 µM and the Ki [4, 9] was 41 ± 5 µM.

`N#CCCN(CCn1cnc2c(=O)[nH]c(N)nc21)CCP(=O)(O)O` [Compound 11] was tested, and the IC50 [6] was about 145 µM.

With `CCCOC(=O)[C@H](Cc1ccccc1)NP(=O)(CCN(CCC#N)CCn1cnc2c(=O)[nH]cnc21)N[C@@H](Cc1ccccc1)C(=O)OCCC` [Compound 14] the IC50 [6] was 12.3 ± 1.6 µM, the IC90 [6] was 18.7 ± 1.7 µM and the IC50 [7] was 19.3 ± 7.5 µM. For the same compound, the IC90 [7] was 48 ± 13.6 µM.

Compound `COC(=O)CCCN(CCn1cnc2c(=O)[nH]cnc21)CCP(=O)(O)O` [Example 17, 9-[(N-(4-Methoxy-4-oxobutyl)-N-(2-phosphonoethyl))-2-aminoethyl] hypoxanthine] has a Ki [3] of 22 ± 3 µM, a Ki [2, 8] of at least 220 µM and a Ki [4, 9] of at least 250 µM.

`O=c1[nH]cnc2c1ncn2CCN(CCP(=O)(O)O)CCP(=O)(O)O` [Example 25, 9-[(N,N-(Bis-2-phosphonoethyl))-2-aminoethyl]hypoxanthine] was tested, and the Ki [2] was 0.4 ± 0.1 µM and the “Ki ratio (proto:phosphonatoethyl)” value [4] was >20-fold.

For `Nc1nc2c(ncn2CCOCCP(=O)(O)O)c(=O)[nH]1` [PEEG, 2-(Phosphonoethoxy)ethyl guanine, reference compound], the Ki [3] was 1 ± 0.5 µM and the Ki [2, 8] was 0.1 ± 0.02 µM.

Work on `COC(=O)CCN(CCn1cnc2c(=O)[nH]cnc21)CCP(=O)(O)O` [Example 16, 9-[(N-(3-Methoxy-3-oxopropyl)-N-(2-phosphonoethyl))-2-aminoethyl]hypoxanthine] yielded a Ki [3] of at least 200 µM, a Ki [2, 8] of 0.1 ± 0.03 µM and a Ki [4, 9] of 21 ± 2 µM.

Compound `CCOC(=O)CN(CCn1cnc2c(=O)[nH]cnc21)CCP(=O)(O)O` [Example 15, 9-[(N-(2-Ethoxy-2-oxoethyl)-N-(2-phosphonoethyl))-2-aminoethyl]hypoxanthine] has a Ki [3] of 2.6 ± 0.5 µM, a Ki [2, 8] of 1.9 ± 0.4 µM and a Ki [4, 9] of 11 ± 1 µM.
